Measurements as given in patent US20230013823A1, “INHIBITORS OF HUMAN IMMUNODEFICIENCY VIRUS REPLICATION” (VIV HEALTHCARE UK (No. 5) LIMITED, priority 2019, published 2023).

Tests used:
[1] = Compound cytotoxicity, XTT-based colorimetric assay; format: cell-based; settings: human; uninfected MT2 cells, day 4, XTT
Description: Compound cytotoxicity and the corresponding CC50 values were determined using the same protocol as described in the antiviral assay except that uninfected cells were used. Cytotoxicity was assessed on day 4 in uninfected MT2 cells by using an XTT (2,3-bis[2-Methoxy-4-nitro-5-sulfophenyl]-2H-tetrazolium-5-carboxyanilide inner salt)-based colorimetric assay (Sigma-Aldrich, St Louis, Mo.).

[2] = test system: recombinant NL4-3 virus (Renilla luciferase in nef); test: HIV cell culture assay (antiviral activity, luciferase readout in MT-2 cells); format: cell-based; settings: Renilla, NL43
Description: HIV cell culture assay—MT=2 cells, 293T cells and the proviral DNA clone of NL4-3 virus were obtained from the NIH AIDS Research and Reference Reagent Program. MT=2 cells were propagated in RPMI 1640 media supplemented with 10% heat inactivated fetal bovine serum (FBS), […] penicillin G and up to 100 units/mL streptomycin. The 293T cells were propagated in DMEM media supplemented with 10% heat inactivated FBS, […] penicillin G and […] streptomycin. A recombinant NL4-3 proviral clone, in which a section of the nef gene was replaced with the Renilla luciferase gene, was used to make the reference virus used in these studies. The recombinant virus was prepared through transfection of the recombinant NL4-3 proviral clone into 293T cells using Transit-293 Transfection Reagent from Mirus Bio LLC (Madison, Wis.). Supernatent was harvested after 2-3 days and the amount of virus present was titered in MT=2 cells using luciferase enzyme activity as a marker by measuring luciferase enzyme activity. Luciferase was quantitated using the EnduRen Live Cell Substrate from Promega (Madison, Wis.). Antiviral activities of compounds toward the recombinant virus were quantified by measuring luciferase activity in MT=2 cells infected for 4-5 days with the recombinant virus in the presence of serial dilutions of the compound.
The 50% effective concentration (EC50) was calculated by using the exponential form of the median effect equation where (Fa)=1/[1+(ED50/drug conc.)m] (Johnson V A, Byington R T. Infectivity Assay. In Techniques in HIV Research. ed. Aldovini A, Walker B D. 71-76. New York: Stockton Press. 1990). The 50% inhibitory concentration (EC50) was calculated by using the exponential form of the median effect equation where percent inhibition=1/[1+(EC50/drug concentration)m], where m is a parameter that reflects the slope of the concentration-response curve.

Cn1nc(NS(C)(=O)=O)c2c(Cl)ccc(-n3c([C@H](Cc4cc(F)cc(F)c4)NC(=O)Cn4nc(C(F)F)c5c4C(F)(F)[C@@H]4C[C@H]54)nc4cc(-c5cccc(C(F)F)c5F)ccc4c3=O)c21 (atropisomer, axis not shown; (P)) [Example 18, N—((S)-1-((3P)-3-(4-chloro-1-methyl-3-(methylsulfonamido)-1H-indazol-7-yl)-7-(3-(difluoromethyl)-2-fluorophenyl)-4-oxo-3,4-dihydroquinazolin-2-yl)-2-(3,5-difluorophenyl)ethyl)-2-((3bS,4aR)-3-(difluoromethyl)-5,5-difluoro-3b,4,4a,5-tetrahydro-1H-cyclopropa[3,4]cyclopenta[1,2-c]pyrazol-1-yl)acetamide]
CC50 at 4 days [1]: > 500 nM | EC50 [2]: 0.54 nM

COCc1ccccc1-c1ccc2c(=O)n(-c3ccc(Cl)c4c(NS(C)(=O)=O)nn(C)c34)c([C@H](Cc3cc(F)cc(F)c3)NC(=O)Cn3nc(C(F)F)c4c3C(F)(F)[C@@H]3C[C@H]43)nc2c1 (atropisomer, axis not shown; (P)) [Example 19, N—((S)-1-((3P)-3-(4-chloro-1-methyl-3-(methylsulfonamido)-1H-indazol-7-yl)-7-(2-(methoxymethyl)phenyl)-4-oxo-3,4-dihydroquinazolin-2-yl)-2-(3,5-difluorophenyl)ethyl)-2-((3bS,4aR)-3-(difluoromethyl)-5,5-difluoro-3b,4,4a,5-tetrahydro-1H-cyclopropa[3,4]cyclopenta[1,2-c]pyrazol-1-yl)acetamide]
CC50 at 4 days [1]: > 500 nM | EC50 [2]: 0.16 nM

Cn1nccc1-c1ccc2c(=O)n(-c3ccc(Cl)c4c(NS(C)(=O)=O)nn(C)c34)c([C@H](Cc3cc(F)cc(F)c3)NC(=O)Cn3nc(C(F)F)c4c3C(F)(F)[C@@H]3C[C@H]43)nc2c1 (atropisomer, axis not shown; (P)) [Example 20, N—((S)-1-((3P)-3-(4-chloro-1-methyl-3-(methylsulfonamido)-1H-indazol-7-yl)-7-(1-methyl-1H-pyrazol-5-yl)-4-oxo-3,4-dihydroquinazolin-2-yl)-2-(3,5-difluorophenyl)ethyl)-2-((3bS,4aR)-3-(difluoromethyl)-5,5-difluoro-3b,4,4a,5-tetrahydro-1H-cyclopropa[3,4]cyclopenta[1,2-c]pyrazol-1-yl)acetamide]
CC50 at 4 days [1]: > 500 nM | EC50 [2]: 0.056 nM

Cn1nc(NS(C)(=O)=O)c2c(Cl)ccc(-n3c([C@H](Cc4cc(F)cc(F)c4)NC(=O)Cn4nc(C(F)F)c5c4C(F)(F)[C@@H]4C[C@H]54)nc4cc(-c5nc(C(F)(F)F)ccc5F)ccc4c3=O)c21 (atropisomer, axis not shown; (P)) [Example 21, N—((S)-1-((3P)-3-(4-chloro-1-methyl-3-(methylsulfonamido)-1H-indazol-7-yl)-7-(3-fluoro-6-(trifluoromethyl)pyridin-2-yl)-4-oxo-3,4-dihydroquinazolin-2-yl)-2-(3,5-difluorophenyl)ethyl)-2-((3bS,4aR)-3-(difluoromethyl)-5,5-difluoro-3b,4,4a,5-tetrahydro-1H-cyclopropa[3,4]cyclopenta[1,2-c]pyrazol-1-yl)acetamide]
CC50 at 4 days [1]: > 100 nM | EC50 [2]: 0.15 nM

Cn1nc(NS(C)(=O)=O)c2c(Cl)ccc(-n3c([C@H](Cc4cc(F)cc(F)c4)NC(=O)Cn4nc(C(F)F)c5c4C(F)(F)[C@@H]4C[C@H]54)nc4cc(-c5cncc(C(F)(F)F)n5)ccc4c3=O)c21 (atropisomer, axis not shown; (P)) [Example 22, N—((S)-1-((3P)-3-(4-chloro-1-methyl-3-(methylsulfonamido)-1H-indazol-7-yl)-4-oxo-7-(6-(trifluoromethyl)pyrazin-2-yl)-3,4-dihydroquinazolin-2-yl)-2-(3,5-difluorophenyl)ethyl)-2-((3bS,4aR)-3-(difluoromethyl)-5,5-difluoro-3b,4,4a,5-tetrahydro-1H-cyclopropa[3,4]cyclopenta[1,2-c]pyrazol-1-yl)acetamide]
CC50 at 4 days [1]: > 100 nM | EC50 [2]: 0.06 nM

Cn1nc(NS(C)(=O)=O)c2c(Cl)ccc(-n3c([C@H](Cc4cc(F)cc(F)c4)NC(=O)Cn4nc(C(F)F)c5c4C(F)(F)[C@@H]4C[C@H]54)nc4cc(-c5nccnc5C(F)(F)F)ccc4c3=O)c21 (atropisomer, axis not shown; (P)) [Example 23, N—((S)-1-((3P)-3-(4-chloro-1-methyl-3-(methylsulfonamido)-1H-indazol-7-yl)-4-oxo-7-(3-(trifluoromethyl)pyrazin-2-yl)-3,4-dihydroquinazolin-2-yl)-2-(3,5-difluorophenyl)ethyl)-2-((3bS,4aR)-3-(difluoromethyl)-5,5-difluoro-3b,4,4a,5-tetrahydro-1H-cyclopropa[3,4]cyclopenta[1,2-c]pyrazol-1-yl)acetamide]
CC50 at 4 days [1]: > 100 nM | EC50 [2]: 0.071 nM

Cn1nc(NS(C)(=O)=O)c2c(Cl)ccc(-n3c([C@H](Cc4cc(F)cc(F)c4)NC(=O)Cn4nc(C(F)F)c5c4C(F)(F)[C@@H]4C[C@H]54)nc4cc(-c5ncc(F)cn5)ccc4c3=O)c21 (atropisomer, axis not shown; (P)) [Example 24, N—((S)-1-((3P)-3-(4-chloro-1-methyl-3-(methylsulfonamido)-1H-indazol-7-yl)-7-(5-fluoropyrimidin-2-yl)-4-oxo-3,4-dihydroquinazolin-2-yl)-2-(3,5-difluorophenyl)ethyl)-2-((3bS,4aR)-3-(difluoromethyl)-5,5-difluoro-3b,4,4a,5-tetrahydro-1H-cyclopropa[3,4]cyclopenta[1,2-c]pyrazol-1-yl)acetamide]
CC50 at 4 days [1]: > 100 nM | EC50 [2]: 0.045 nM

Cn1nc(NS(C)(=O)=O)c2c(Cl)ccc(-n3c([C@H](Cc4cc(F)cc(F)c4)NC(=O)Cn4nc(C(F)F)c5c4C(F)(F)[C@@H]4C[C@H]54)nc4cc(-c5cc(C(F)(F)F)ncn5)ccc4c3=O)c21 (atropisomer, axis not shown; (P)) [Example 25, N—((S)-1-((3P)-3-(4-chloro-1-methyl-3-(methylsulfonamido)-1H-indazol-7-yl)-4-oxo-7-(6-(trifluoromethyl)pyrimidin-4-yl)-3,4-dihydroquinazolin-2-yl)-2-(3,5-difluorophenyl)ethyl)-2-((3bS,4aR)-3-(difluoromethyl)-5,5-difluoro-3b,4,4a,5-tetrahydro-1H-cyclopropa[3,4]cyclopenta[1,2-c]pyrazol-1-yl)acetamide]
CC50 at 4 days [1]: > 100 nM | EC50 [2]: 0.083 nM

Cc1cc(-c2ccc3c(=O)n(-c4ccc(Cl)c5c(NS(C)(=O)=O)nn(C)c45)c([C@H](Cc4cc(F)cc(F)c4)NC(=O)Cn4nc(C(F)F)c5c4C(F)(F)[C@@H]4C[C@H]54)nc3c2)nc(C(F)(F)F)n1 (atropisomer, axis not shown; (P)) [Example 26, N—((S)-1-((3P)-3-(4-chloro-1-methyl-3-(methylsulfonamido)-1H-indazol-7-yl)-7-(6-methyl-2-(trifluoromethyl)pyrimidin-4-yl)-4-oxo-3,4-dihydroquinazolin-2-yl)-2-(3,5-difluorophenyl)ethyl)-2-((3bS,4aR)-3-(difluoromethyl)-5,5-difluoro-3b,4,4a,5-tetrahydro-1H-cyclopropa[3,4]cyclopenta[1,2-c]pyrazol-1-yl)acetamide]
CC50 at 4 days [1]: > 100 nM | EC50 [2]: 0.087 nM
